In patent US11020333B2, “Organic compounds” (Givaudan SA, priority 2016, dated 2021):

Assay: Determination of GC-odor threshold values (gas chromatograph with sniff port, panel of trained evaluators)
Conditions: absolute amount of compound delivered at the sniff port, identical conditions
Excerpt: As used herein, “odor threshold value” means the lowest concentration of a vapour in the air which can be detected by smell. Generally speaking, it can be said that a compound with a low odor threshold value is more powerful than a compound with a high odor threshold value and thus allows the use of very low concentration in a fragrance composition to achieve an olfactory effect.
EXAMPLE 24: DETERMINATION OF GC-ODOR THRESHOLD VALUES
According to standard procedures known to the person skilled in the art, threshold values for volatile perfumery compounds are determined on a gas chromatograph equipped with a sniff port by a panel of trained evaluators. The lowest concentration smelled by each panelist is recorded as the individual threshold value expressed in ng (absolute amount of compound delivered at the sniff port).
Under identical conditions the odor threshold value for the individual compounds was measured.
CC1Cc2c(cccc2C2CC2)C1=O (centres unmarked) [Comparison Example 7, 4-cyclopropyl-2-methyl-2,3-dihydro-1H-inden-1-one] showed an odor threshold value of 31.7 ng. Molecule CC1Cc2ccc(C3CC3)cc2C1=O (centres unmarked) [Example 11, 6-cyclopropyl-2-methyl-2,3-dihydro-1H-inden-1-one] has an odor threshold value of 0.46 ng. CC(C)Cc1ccc2c(c1)CC(C)C2=O (centres unmarked) [Comparison Example 1, 5-isobutyl-2-methyl-2,3-dihydro-1H-inden-1-one] gave an odor threshold value of 1.56 ng. For CCCc1ccc2c(c1)C(=O)C(C)C2 (centres unmarked) [Example 7, 2-methyl-6-propyl-2,3-dihydro-1H-inden-1-one], the odor threshold value was 0.04 ng. Work on CCCc1ccc2c(c1)CC(C)C2=O (centres unmarked) [2-methyl-5-propyl-2,3-dihydro-1H-inden-1-one] yielded an odor threshold value of 0.98 ng. C=C(C)Cc1cccc2c1CC(C)C2=O (centres unmarked) [Comparison Example 5, 2-methyl-4-(2-methylallyl)-2,3-dihydro-1H-inden-1-one] showed an odor threshold value of 6.25 ng. Molecule CC(C)Cc1ccc2c(c1)C(=O)C(C)C2 (centres unmarked) [Example 1, 6-isobutyl-2-methyl-2,3-dihydro-1H-inden-1-one] has an odor threshold value of 0.06 ng. C=C(C)Cc1cccc2c1C(=O)C(C)C2 (centres unmarked) [2-methyl-7-(2-methylallyl)-2,3-dihydro-1H-inden-1-one] showed an odor threshold value of 4.96 ng. In the case of CCCc1cccc2c1CC(C)C2=O (centres unmarked) [Comparison Example 3, 2-methyl-4-propyl-2,3-dihydro-1H-inden-1-one], the odor threshold value is reported as 6.25 ng. Molecule CC1Cc2cccc(C3CC3)c2C1=O (centres unmarked) [7-cyclopropyl-2-methyl-2,3-dihydro-1H-inden-1-one] has an odor threshold value of 4.31 ng. For C=C(C)Cc1ccc2c(c1)C(=O)C(C)C2 (centres unmarked) [Example 22, 2-methyl-6-(2-methylallyl)-2,3-dihydro-1H-inden-1-one], the odor threshold value was 0.24 ng.
